Reference: patent US20230192774A1, “IMM[…] POLYOMAVIRUSES” (The Council of the Queensland Institute of Medical Research, priority 2019, published 2023)
Entries after “also recorded” stand apart in the source; their conditions may differ.

Tests used:
Type in all cases: cell-based, human
CD4^+ T cells = assay: intracellular cytokine assay of T cells expanded with synthetic JCV peptides; details: PBMC from healthy volunteers cultured 12-14 days with cytokines
Method: JCV-specific T cells were expanded in vitro following stimulation with pooled JCV epitopes. Specifically, PBMC from healthy volunteers were stimulated with synthetic JCV peptides (Table 1) for 1 hour and then cultured for 12-14 days in the presence of different cytokine combinations, including IL-2 (10 ng/ml), IL7 (10 ng/ml), IL12 (10 ng/ml) and/or IL15 (10 ng/ml). The JCV specificity of the expanded T cells was assessed using standard intracellular cytokine assays (Table 6).

HLA class II = HLA class II restriction analysis with peptide-loaded LCLs, IFN-γ ICS assay; details: LCLs matching one single HLA allele of the donor loaded with peptide for 1 hour
Method: Specifically, the HLA class II-restriction of VDLHAFLSQAVFSNR (SEQ ID NO: 2) (LT29), FLSQAVFSNRTVASF (SEQ ID NO: 3) (LT30) and TVASFAVYTTKEKAQ (SEQ ID NO: 4) (LT32) peptides as HLA DRB1*10:01 is shown. Briefly, a panel of lymphoblastoid cells (LCLs) matching one single allele of the HLA type of the donor were chosen and loaded with respective peptide for 1 hour. The loaded LCLs were then used as stimulator cells in an IFN-γ ICS assay. The peptide, when presented by the MHC, elicits an IFN-γ response in JCV-specific T cells. […]

Peptide-specific T cells = assay: T cell cross-reactivity between JCV and BKV epitopes (intracellular cytokine assay); details: for BKV cross-reactivity: CD4^+ T cell responses to JCV peptides; for recognition of BKV and JCV peptide by T cells expanded with the epitope: expanded with one epitope, re-stimulated with JCV or BKV epitope, IFN-γ
Excerpt: ICS FACS plots show the expression of IFN-γ in T cells expanded with either BKV epitope (SSGTQQWRGLARYFK (SEQ ID NO: 33)) or JCV epitope (RSGSQQWRGLSRYFK (SEQ ID NO: 12)). These primed T cells were stimulated using both BKV and JCV peptide showing that the T cells expanded with either of these epitopes recognize both BKV and JCV peptide sequences.
Peptide-specific T cells were expanded in vitro following stimulation with JCV epitope or BKV epitope and then re-stimulated with the corresponding […] peptide epitope (see Table 2) so as to observe any cross-reactive response between JCV and BKV epitopes. Specifically, PBMC from healthy volunteers were cultured with synthetic JCV peptide epitope RSGSQQWRGLSRYFK (SEQ ID NO: 12) or with synthetic BKV peptide epitope SSGTQQWRGLARYFK (SEQ ID NO: 33). Following initial expansion, each sample was re-stimulated (re-called) with either JCV epitope RSGSQQWRGLSRYFK (SEQ ID NO: 12) or BKV epitope SSGTQQWRGLARYFK (SEQ ID NO: 33) (wherein samples re-called with the same epitope act as internal controls). The reactivity of the expanded T cells was assessed using standard intracellular cytokine assays (see FIG. 4).

JCV-specific T cells = assay: two-dimensional peptide matrix epitope mapping, IFN-γ ICS assay; details: FACS, individual LTA overlapping peptides
Excerpt: JCV-specific T cells expanded in vitro using the OPPs were further characterized by identifying specific T cell determinants. […] The response using the subpools were overlayed on a two dimensional matrix, thus showing the common individual peptides among the pools. […] Figure discloses SEQ ID NOS 2-4, respectively, in order of appearance.
In order to precisely map the HLA class I and class II-restricted T cell responses, individual overlapping peptides (15 aa long overlapping by 10 aa) were sourced for LTA, STA and VP1 proteins for T cell epitope mapping. A two-dimensional peptide matrix was used to distribute all individual peptides into small overlapping peptide pools. For example, in the case of Large T Antigen, the matrix is arranged such that each peptide of the pools (LTA1 to LTA24) occurs once on the ordinate. The T cell response for each pool was measured by intracellular cytokine-staining (ICS) IFN-γ assay (see FIG. 2A) and the data overlayed on a two dimensional matrix as follows.
Thus, the common individual peptides among pools that elicited a T cell response were identified, i.e., peptide 32 (P32) at the intersection of row LTA4 and column LTA16 and peptides P29 and P30 at the intersection of row LTA3 with columns LTA23 and LTA24.

| Sequence | %IFNγ^+CD4^+ with 0.1 μg/ml peptide (CD4^+ T cells) | %IFNγ^+CD4^+ with 1 μg/ml peptide (CD4^+ T cells) | HLA Restriction (HLA class II) | BKV cross-reactivity (Peptide-specific T cells) | T cell response for individual peptide in the IFN-γ ICS assay (JCV-specific T cells) | recognition of BKV and JCV peptide by T cells expanded with the epitope (Peptide-specific T cells) |
| --- | --- | --- | --- | --- | --- | --- |
| ERLNFELGVGIDQFM (listed as Betapolyomavirus secuhominis) | 2.2% | 6.32% | DRB1*15:01 | Yes | – | – |
| NFLYKKMEQGVKVAH (listed as Betapolyomavirus secuhominis) | 0.2% | 1.2% | DRB1*15:01 | – | – | – |
| LRSSPLVWIDCYCFD (listed as Betapolyomavirus secuhominis) | 0.4% | 1.81% | DRB1*15:01 | – | – | – |
| KMKRMNFLYKKMEQG (listed as Betapolyomavirus secuhominis) | 0.4% | 1.4% | DRB1*15:01 | Yes | – | – |
| VDLHAFLSQAVFSNR (listed as Betapolyomavirus secuhominis) | 20.26% | 25.49% | DRB1*10:01 | Yes | elicit a JCV-specific T cell response | – |
| EQYMAGVAWIHCLLP (listed as Betapolyomavirus secuhominis) | 2.5% | 2.9% | DRB1*04:01 &; also recorded: DRB1*03:01 | Yes | – | – |
| TVASFAVYTTKEKAQ (listed as Betapolyomavirus secuhominis) | 6.4% | 7.34% | DRB1*10:01 | Yes | elicit a JCV-specific T cell response | – |
| MTREEMLVERFNFLL (listed as Betapolyomavirus secuhominis) | 2% | 3.8% | DRB1*04:01 &; also recorded: DRB1*03:01 | Yes | – | – |
| MDKVLNREESMELMD (listed as Betapolyomavirus secuhominis) [identical BKV homologue] | 1.65% | 5.26% | DRB1*01:01 | Yes | – | – |
| SKNQKSICQQAVDTV (listed as Betapolyomavirus secuhominis) [identical BKV homologue] | 0.41% | 2.31% | DRB1*04:01 &; also recorded: DQB1*02:02 | Yes | – | – |
| FLSQAVFSNRTVASF (listed as Betapolyomavirus secuhominis) | 34.1% | 38.39% | DRB1*10:01 | Yes | elicit a JCV-specific T cell response | – |
| IDQFMVVFEDVKGTG (listed as Betapolyomavirus secuhominis) | 18.5% | 24.8% | DRB1*14:04/; also recorded: DQB1*05:03 | Yes | – | – |
| DPDMMRYVDKYGQLQ | 2.1% | 4.5% | DRB1*04:02 | Yes | – | – |
| SSGTQQWRGLARYFK | – | – | – | – | – | recognize both the BKV and JCV peptide sequence |
| GGHNILFFLTPHRHR (listed as Betapolyomavirus secuhominis) | 1.28% | 6.15% | DRB1*16:O1 | Yes | – | – |
| SICQQAVDTVAAKQR (listed as Betapolyomavirus secuhominis) | 0.24% | 4.38% | DRB1*04:01 &; also recorded: DQB1*02:02 | Yes | – | – |
| RKAYLKKCKELHPDK (listed as Betapolyomavirus secuhominis) | 9.2% | 10.4% | DRB1*13:01 | Yes | – | – |
| TCGNILMWEAVTLKT (listed as Betapolyomavirus secuhominis) | 2.65% | 4.83% | DRB1*15:01 | Yes | – | – |
| SITEVECFLTPEMGD (listed as Betapolyomavirus secuhominis) | 2.8% | 2.71% | DRB1*01:01 &; also recorded: DQB1*05:01 | Yes | – | – |
| RSGSQQWRGLSRYFK | 7.8% | 8.4% | DRB1*11:01 | Yes | – | recognize both the BKV and JCV peptide sequence |
| RYWLFKGPIDSGKTT [identical BKV homologue] | 2.35% | 4.05% | DRB1*15:01 | Yes | – | – |
| RNRKFLRSSPLVWID (listed as Betapolyomavirus secuhominis) | 0.6% | 3.03% | DRB1*15:01 | – | – | – |
